Assay [1] deals with 3D human liver microtissues. The assay can be described thus: Fibrosing NASH model: COL1A1 (pro-collagen I) ELISA in medium 1+medium 2-treated 3D human liver microtissues. Type of assay: cell-based. The conditions noted are these: single agent, medium 1+medium 2-treated 3D liver microtissues, FIG. 9A. The text has this:
Cryopreserved primary human hepatocytes (IPHH_11) and cryopreserved primary human non parenchymal cells (NPCs containing endothelial and Kupffer cells) (IPHN_11) were obtained from BioIVT. The cryopreserved human primary hepatic stellate cells (hHSC) were obtained from Innoprot. 3D human liver microtissues were produced with the IPHH_11, the IPHN_11 and the hHSC in a 96-well hanging-drop culture platform (Gravity PLUS™, InSphero AG). After microtissues formation, they were transferred into a microtissue-specific 96-well culture and assay platform (Gravity TRAP™, InSphero AG). Further maintenance and compound treatments were performed in Gravity TRAP™ plates. After tissue formation, the 3D microtissues were maintained in William's E medium (Gibco) supplemented with Insulin (Sigma), Transferrin (Sigma), Selenium (Sigma), Glutamine (Gibco), Dexamethasone (Sigma), HEPES (Sigma), Gentamicin (Gibco) and Amphotericin B (Sigma) at 37° C. in a humidified 5% CO2 cell culture incubator for 4 days. Half of the culture medium was replenished every 3 days.
Hepatic microtissues were treated once with a couple of carbohydrates (final concentration ranging from 1 to 100 mM), a couple of free fatty acids either saturated or unsaturated with a final concentration ranging from 100μM to 1 mM and a source of cholesterol with a concentration ranging from 1 μg/mL to 1 mg/mL (medium 1). After 2 to 5 days, microtissues were treated with a couple of carbohydrates (final concentration ranging from 1 to 100 mM), a couple of free fatty acids either saturated or unsaturated with a final concentration ranging from 100 μM to 1 mM and a source of cholesterol with a concentration ranging from 1 μg/mL to 250 μg/mL, a member of the growth factor superfamily member, a member of the TNFSF with a concentration ranging from 1 ng/mL to 1 μg/mL and a sphingolipid with a concentration ranging from 1 nM to 500 nM (medium 2). This treatment lasts from 2 to 5 days.
The level of Collal, IL-8 and MCP-1 was measured using a Sandwich ELISA, according to manufacturer's instructions provided with “Elisa Pro-Collagen I α1/COLIA1”, (DuoSet ELISA, R&D, catalog N°: DY6220-05), Elisa CXCL8/IL-8 (DuoSet ELISA, R&D, catalog N°: DY208n) and Elisa CCL2/MCP-1 (DuoSet ELISA, R&D, catalog N°: DY279) kits, respectively.
For these experiments, a checkerboard matrix was generated. ELA and component (ii) stocks were serially diluted in DMSO in 2-points series in a row (ELA) and a 3-points series in a column (component (ii)) of a 96-well plate. Subsequently, the 2×3 combination matrix was generated by 1:1 mixing of all single agent concentrations.
For orientation: In an ELISA, binding on a coated surface is turned into a signal by an enzyme label.

The subject of assay [2] is 3D Huh7 spheroids. The assay can be described thus: Steatosis model: AdipoRed lipid quantification in 3D Huh7 spheroids induced with first culture medium. Type of assay: cell-based, human. The conditions noted are these: 3D liver microtissue steatosis model, 6 days of treatment with test compound. As to the method: The Huh 7 human hepatocellular carcinoma cell line was seeded in William's E medium (Gibco) with 10% FBS (Gibco) at a density of 3000 cells/well in 384 well plate ULA (Corning). After a few days, spheroids are formed and cells are grown in serum-free culture medium.
William's E medium was supplemented with FFAs (oleate+palmitate, 400 μM total FFA concentration) fructose 15 mM (Sigma) and soluble cholesterol […] (Sigma). Huh7 spheroids were treated for 3 days with this medium with or without a test compound and the treatment was renewed once with or without a test compound.
Steatosis was then measured after 6 days of treatment with or without the test compound.
Lipid Staining and Quantification Intracellular lipid accumulation was quantified using the AdipoRed™ Adipogenesis Assay Reagent (Lonza). Cells were visualized under epifluorescence microscope and then subjected to fluorescence assay quantification at λexc: 485 nm and λem: 572 nm, using plate reader (TECAN).

“Also recorded” adds a separate entry of the source.

For `O=C(c1c2ccccc2cc2ccccc12)N1CCC(N2CCC[C@@H](C(=O)N3CCOCC3)C2)CC1` [CP-640186], the “inhibition of COL1A1 secretion (collagen release)” value (shortened to “inhibition”) in assay [1] (high dose 3 μM) is on record as “the release of collagen was affected; also recorded: inhibition of COL1A1 secretion”. For the same compound, the “antisteatotic activity (lipid content, AdipoRed signal)” value in assay [2] is given as “antisteatotic activity”.

Consider `COc1ccccc1[C@H](Cn1c(=O)n(C(C)(C)C(=O)O)c(=O)c2c(C)c(-c3ncco3)sc21)OC1CCOCC1` [GS-0976], for which the “inhibition” value in assay [1] (high dose 1 μM) is “the release of collagen was affected; also recorded: inhibition of COL1A1 secretion”. Also, the “antisteatotic activity (lipid content, AdipoRed signal)” value in assay [2] is listed as “antisteatotic activity”.

In the case of `COc1cc(C(=O)N2CCC3(CC2)CC(=O)c2cc(-c4cncc(C(=O)O)c4)ccc2O3)cc2c1c(C)cn2C1CC1` [MK-4074], the “antisteatotic activity (lipid content, AdipoRed signal)” value in assay [2] is “antisteatotic activity”.

As for `CSc1ccc(C(=O)/C=C/c2cc(C)c(OC(C)(C)C(=O)O)c(C)c2)cc1` [Elafibranor], the “inhibition” value in assay [1] (high dose 3 μM) is given as “inhibition of COL1A1 secretion”; in assay [1] (high dose 3 μM, listed as ELA), “the release of collagen was affected”.

The record behind these values is US20220056419A1, “IN VITRO MODEL OF LIVER STEATOSIS AND FIBROSING NON-ALCOHOLIC STEATOHEPATITIS” (GENFIT, priority 2018, published 2022).
